# In patent publication US20090176714A1, “METHOD OF REDUCING THE EFFECTS OF ABeta AND COMPOSITIONS THEREFORE” (priority 2004, published 2009):
# Experiments:
# [1] = system: hippocampal slices; assay: TUNEL and Nissl staining of hippocampal slices; assay type: cell-based, mouse; details: 25 μM or 50 μM Aβ
# Description: Hippocampal slice cryosections from 3 animals per treatment were stained with terminal deoxynucleotidyl transferase-mediated, dUTP nick end labeling (TUNEL). Cells with DNA fragmentation were determined by the terminal deoxynucleotidyl transferase incorporation of fluorescein isothiocyanate (FITC)-12-dUTP into DNA (In Situ Cell Death Detection kit, Roche Biochem, Indianapolis, Ind.). Other sections were stained with cresyl violet acetate, and the neurons with healthy nuclei as well as the neurons with condensed and clumped chromatin were counted within the neuronal fields.
# β-amyloid1-42 and reverse Aβ (Aβ42-1) were obtained from BACHEM (Torrance, Calif.). These polypeptides were dissolved in 0.1% NH3OH at 222 μM. For treatments, Aβ was aggregated at 50 μM in Neurobasal media with B-27 supplement and 1 mM glutamine at 37° C. for 24 hours. Then, the slice culture media was removed, and the slices were treated with 1 mL of 25 μM or 50 μM Aβ, reverse Aβ, or vehicle for 24 hours. Human TTR (Calbiochem) or IGF-2 (Peprotech, Rocky Hill, N.J.) was added to slices together with the Aβ treatment at final concentrations of 3 μM (TTR) or 500 nM (IGF-2). sAPPα was prepared as described previously (Mattson et al., Neuron, 10:243-254 (1993)).
# Unless otherwise stated, all sAPPα treatments were performed at 1 nM 48 hours prior to the addition of Aβ. […]
# [2] = system: tau; assay: Tau phosphorylation (AT8, phospho-tau(Thr231) immunohistochemistry, immunoblot, electron microscopy) in hippocampal slices; assay type: cell-based, mouse
# Description: Mice were killed with CO2 and immediately perfused through the heart with phosphate buffered saline (PBS). The right hemispheres were fixed in 4% paraformaldehyde (PFA) overnight, sunk in 30% sucrose, and frozen in OCT embedding medium. Hippocampal slices were fixed in 4% PFA for 20 minutes, incubated in 30% sucrose overnight, and frozen in OCT embedding medium. Frozen sections with a width of 10 μm were taken through the hippocampus. Post-mortem human tissue was formalin fixed, cut at 10 μm, and boiled for 10 minutes in a 10 mM Tris buffer, […] for antigen retrieval. IGF-2 and TTR were detected with a 1:200 dilution of the polyclonal antibody against IGF-2 (F-20) or TTR (C-20; Santa Cruz Biotechnology, Santa Cruz, Calif.). Phospho-BAD (Ser112; Cell Signaling, Beverly, Mass.), and BAD (Stressgen, Victoria, British Columbia) were detected with a 1:250 dilution of the respective polyclonal antibody. Phosphorylated tau was detected with the monoclonal AT8 antibody (1:200; Research Diagnostics, Flanders, N.J.) and anti-phospho-tau(Thr231) (1:500; Calbiochem, San Diego, Calif.). As a control pre-immune rabbit or mouse IgG (Vector Laboratories, Burlingame, Calif.) or goat IgG (Santa Cruz) was used in place of the primary antibody. A biotinylated anti-goat IgG, anti-rabbit IgG, or anti-mouse IgG was used as the secondary antibody. Finally, the Vectastain Elite ABC kit (Vector) and tyramide conjugated to either Alexa Fluor 488 or 568 (Molecular Probes, Eugene, Oreg.) were used to visualize the antibody staining. Anti-NeuN (1:250; Chemicon International, Temecula, Calif.) and 4G8 (1:250; Signet, Dedham, Mass.) together with an anti-mouse IgG secondary antibody conjugated to Alexa Fluor 488 were used to detect NeuN and Aβ. The DNA binding dyes ToPro3 (Molecular Probes) or Hoechst 33258 (Sigma, St. Louis, Mo.) were used to visualize nuclei. Sections were imaged using either the Bio-Rad Laser Scanning Confocal system or epifluorescence (Zeiss, Thornwood, N.Y.). Representative figures were obtained from 3 APPSw mice and 3 non-transgenic controls, 3 animals per treatment for hippocampal slices, or from 4 goat IgG and 4 anti-TTR antibody infused mice.
# Following treatment with 50 μM Aβ or reverse Aβ for 24 hours, hippocampal slice cultures were fixed with a mixture of 2% PFA/2.5% glutaraldehyde in 0.1 M Sorensons phosphate buffer (pH 7.4) for 1 hour and then post fixed for 1 hour in 2% osmium tetroxide in the same buffer. The slices were then dehydrated in an ethanol series and embedded in Epon epoxy resin. Ultrathin sections were cut on a Reichert-Jung microtome, placed on copper grids, and stained with routine concentrations of uranyl acetate and lead citrate. Micrographs were taken with a Philips CM120 electron microscope. […]
# [3] = system: tau; assay: Tau phosphorylation in human cortical slices (AT8, phospho-tau(Thr231), electron microscopy); assay type: cell-based
# Description: β-amyloid1-42 and reverse Aβ (Aβ42-1) were obtained from BACHEM (Torrance, Calif.). These peptides were dissolved in 0.1% NH3OH at 222 μM. For treatments, Aβ or reverse Aβ was aggregated at 50 μM in Neurobasal media with B-27 supplement and 0.5 mM glutamine at 37° C. for 24 hours. […] Human TTR (Calbiochem) was added to slices together with the Aβ treatment at final concentrations of 0.03, 0.3, and 3 μM TTR. sAPPα was obtained from Sigma (St. Louis, Mo.). Unless otherwise stated, all sAPPα treatments were performed at 1 nM 48 hours prior to the addition of Aβ. The 10 amino acid fragment of the carboxyl-terminal region of sAPPα (592-601 of APP695; SEVKMDAEFR was added according to the same protocol for sAPPα. Because a variable amount of tissue was obtained from each patient, not all treatments were performed on all patients.
# Slices were fixed in 4% PFA for 20 minutes, incubated in 30% sucrose in phosphate buffered saline overnight, and frozen in OCT embedding medium. Frozen sections with a width of 10 μm were taken through each slice. Phosphorylated tau was detected with the monoclonal AT8 antibody (1:200; Research Diagnostics, Flanders, N.J.) and anti-phospho-tau(Thr231) (1:500; Calbiochem, San Diego, Calif.). As a control, pre-immune rabbit or mouse IgG (Vector Laboratories, Burlingame, Calif.) was used in place of the primary antibody. A biotinylated anti-rabbit IgG or anti-mouse IgG was used as the secondary antibody. The Vectastain Elite ABC kit (Vector) and tyramide conjugated to either Alexa Fluor 488 or 568 (Molecular Probes, Eugene, Oreg.) were used to visualize the antibody staining. Anti-NeuN (1:250; Chemicon International, Temecula, Calif.) together with an anti-mouse IgG secondary antibody conjugated to Alexa Fluor 647 was used to detect the neuronal marker NeuN. Sections were imaged using either the Bio-Rad Laser Scanning Confocal system or epifluorescence (Zeiss, Thornwood, N.Y.).
substance,measurement,setting,value
β-amyloid1-42 [Aβ],DNA strand breaks as indicated by TUNEL,[1],resulted in DNA strand breaks
same,Percent of neurons with chromatin condensation,[1]; FIG. 1,significant increase
same,AT8 (phosphorylated tau) staining of neurons in hippocampal neuronal fields,[2]; 25 μM or 50 μM,many neurons within the hippocampal neuronal fields were AT8 positive
same,Phospho-tau(Thr-231) staining of neurons,[2]; 25 μM or 50 μM Aβ,several neurons stained positively for phospho-tau(Thr-231)
same,"Levels of phosphorylated tau, immunoblot for phospho-tau(Thr-231)",[2]; 50 μM,increased the levels of phosphorylated tau
same,"Filaments within the cytoplasm of neurons, electron microscopy","[2]; 50 μM Aβ, 24 hours","presence of long, straight filaments"
same,AT8 positive cells,[3]; 50 μM Aβ,several AT8 positive cells
same,Somatic phospho-tau(Thr231) in NeuN positive neurons,[3]; 50 μM Aβ,several NeuN positive neurons with high levels of somatic phospho-tau(Thr231)
same,"Tangle-like structures, electron microscopy",[3]; 50 μM Aβ for 1 week,small number of neurons with tangle-like structures
